# Reference: ChEMBL document CHEMBL1201862, “PubChem BioAssay data set” (2004)
# Active and inactive are the calls of the source.
# What was measured:
# Cytochrome P450 2C9 = Cytochrome P450 2C9 (Homo sapiens, UniProt P11712); settings: Potency
# [1] = biological target: Photoreceptor-specific nuclear receptor (Homo sapiens, UniProt Q9Y5X4); format: functional;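 further: potency for compounds that break the NR2E3 corepressor complex and count as activators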
# [2] = biological target: Ras and Rab interactor 1/Tyrosine-protein kinase ABL1 (Homo sapiens, UniProt P00519+Q13671); format: functional;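 further: biochemical TR-FRET dose-response test measuring inhibition of binding between Rin1 and Abl proteins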
# [3] = biological target: Peroxisome proliferator-activated receptor gamma/Nuclear receptor corepressor 2 (Homo sapiens, UniProt P37231+Q9Y618); format: functional
# [4] = biological target: T1, Histone-lysine N-methyltransferase NSD2 (Homo sapiens, UniProt O96028); format: biochemical
# T1 sequence (O96028 whole entry): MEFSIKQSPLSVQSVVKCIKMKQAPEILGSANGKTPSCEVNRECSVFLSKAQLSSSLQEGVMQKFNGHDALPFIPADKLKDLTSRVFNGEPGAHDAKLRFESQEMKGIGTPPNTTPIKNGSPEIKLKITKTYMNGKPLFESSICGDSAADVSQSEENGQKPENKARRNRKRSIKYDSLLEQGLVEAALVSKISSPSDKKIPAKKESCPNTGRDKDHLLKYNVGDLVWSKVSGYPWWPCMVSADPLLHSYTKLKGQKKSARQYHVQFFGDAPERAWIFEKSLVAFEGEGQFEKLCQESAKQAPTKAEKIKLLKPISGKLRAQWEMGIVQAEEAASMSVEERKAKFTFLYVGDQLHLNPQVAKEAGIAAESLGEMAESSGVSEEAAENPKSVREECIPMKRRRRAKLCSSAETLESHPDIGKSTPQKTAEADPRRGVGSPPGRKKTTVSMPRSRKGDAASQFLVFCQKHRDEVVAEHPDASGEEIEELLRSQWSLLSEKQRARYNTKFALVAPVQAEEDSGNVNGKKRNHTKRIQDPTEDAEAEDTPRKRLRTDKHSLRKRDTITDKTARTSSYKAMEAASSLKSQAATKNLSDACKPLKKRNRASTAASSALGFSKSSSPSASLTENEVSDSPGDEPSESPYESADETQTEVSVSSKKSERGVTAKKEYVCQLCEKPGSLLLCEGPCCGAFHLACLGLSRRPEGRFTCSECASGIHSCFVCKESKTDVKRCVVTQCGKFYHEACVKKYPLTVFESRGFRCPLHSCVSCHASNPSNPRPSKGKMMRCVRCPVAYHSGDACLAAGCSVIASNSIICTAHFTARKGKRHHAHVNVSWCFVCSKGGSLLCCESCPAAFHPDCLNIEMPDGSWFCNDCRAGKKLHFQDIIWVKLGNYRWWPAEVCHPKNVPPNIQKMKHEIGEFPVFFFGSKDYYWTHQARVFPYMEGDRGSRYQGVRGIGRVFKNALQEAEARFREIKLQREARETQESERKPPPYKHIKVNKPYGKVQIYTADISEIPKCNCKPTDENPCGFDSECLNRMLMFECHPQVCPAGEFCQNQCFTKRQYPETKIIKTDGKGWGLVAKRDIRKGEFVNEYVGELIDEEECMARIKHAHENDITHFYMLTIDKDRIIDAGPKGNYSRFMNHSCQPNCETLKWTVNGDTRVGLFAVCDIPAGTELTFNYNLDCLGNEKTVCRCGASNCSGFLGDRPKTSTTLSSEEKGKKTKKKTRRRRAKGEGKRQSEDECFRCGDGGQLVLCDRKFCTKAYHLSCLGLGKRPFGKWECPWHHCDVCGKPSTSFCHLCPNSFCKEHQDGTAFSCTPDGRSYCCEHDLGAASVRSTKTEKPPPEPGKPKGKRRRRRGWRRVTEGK
# [5] = biological target: T2, Voltage-dependent T-type calcium channel subunit alpha-1H (Homo sapiens, UniProt O95180); experiment: Inhibitors of T-Type Calcium Channels. [Related pubchem assays (depositor defined):AID449739, AID463087, AID489005, AID493041, AID504579, AID504584, AID504619, AID504628]; format: functional
# T2 sequence (O95180 whole entry): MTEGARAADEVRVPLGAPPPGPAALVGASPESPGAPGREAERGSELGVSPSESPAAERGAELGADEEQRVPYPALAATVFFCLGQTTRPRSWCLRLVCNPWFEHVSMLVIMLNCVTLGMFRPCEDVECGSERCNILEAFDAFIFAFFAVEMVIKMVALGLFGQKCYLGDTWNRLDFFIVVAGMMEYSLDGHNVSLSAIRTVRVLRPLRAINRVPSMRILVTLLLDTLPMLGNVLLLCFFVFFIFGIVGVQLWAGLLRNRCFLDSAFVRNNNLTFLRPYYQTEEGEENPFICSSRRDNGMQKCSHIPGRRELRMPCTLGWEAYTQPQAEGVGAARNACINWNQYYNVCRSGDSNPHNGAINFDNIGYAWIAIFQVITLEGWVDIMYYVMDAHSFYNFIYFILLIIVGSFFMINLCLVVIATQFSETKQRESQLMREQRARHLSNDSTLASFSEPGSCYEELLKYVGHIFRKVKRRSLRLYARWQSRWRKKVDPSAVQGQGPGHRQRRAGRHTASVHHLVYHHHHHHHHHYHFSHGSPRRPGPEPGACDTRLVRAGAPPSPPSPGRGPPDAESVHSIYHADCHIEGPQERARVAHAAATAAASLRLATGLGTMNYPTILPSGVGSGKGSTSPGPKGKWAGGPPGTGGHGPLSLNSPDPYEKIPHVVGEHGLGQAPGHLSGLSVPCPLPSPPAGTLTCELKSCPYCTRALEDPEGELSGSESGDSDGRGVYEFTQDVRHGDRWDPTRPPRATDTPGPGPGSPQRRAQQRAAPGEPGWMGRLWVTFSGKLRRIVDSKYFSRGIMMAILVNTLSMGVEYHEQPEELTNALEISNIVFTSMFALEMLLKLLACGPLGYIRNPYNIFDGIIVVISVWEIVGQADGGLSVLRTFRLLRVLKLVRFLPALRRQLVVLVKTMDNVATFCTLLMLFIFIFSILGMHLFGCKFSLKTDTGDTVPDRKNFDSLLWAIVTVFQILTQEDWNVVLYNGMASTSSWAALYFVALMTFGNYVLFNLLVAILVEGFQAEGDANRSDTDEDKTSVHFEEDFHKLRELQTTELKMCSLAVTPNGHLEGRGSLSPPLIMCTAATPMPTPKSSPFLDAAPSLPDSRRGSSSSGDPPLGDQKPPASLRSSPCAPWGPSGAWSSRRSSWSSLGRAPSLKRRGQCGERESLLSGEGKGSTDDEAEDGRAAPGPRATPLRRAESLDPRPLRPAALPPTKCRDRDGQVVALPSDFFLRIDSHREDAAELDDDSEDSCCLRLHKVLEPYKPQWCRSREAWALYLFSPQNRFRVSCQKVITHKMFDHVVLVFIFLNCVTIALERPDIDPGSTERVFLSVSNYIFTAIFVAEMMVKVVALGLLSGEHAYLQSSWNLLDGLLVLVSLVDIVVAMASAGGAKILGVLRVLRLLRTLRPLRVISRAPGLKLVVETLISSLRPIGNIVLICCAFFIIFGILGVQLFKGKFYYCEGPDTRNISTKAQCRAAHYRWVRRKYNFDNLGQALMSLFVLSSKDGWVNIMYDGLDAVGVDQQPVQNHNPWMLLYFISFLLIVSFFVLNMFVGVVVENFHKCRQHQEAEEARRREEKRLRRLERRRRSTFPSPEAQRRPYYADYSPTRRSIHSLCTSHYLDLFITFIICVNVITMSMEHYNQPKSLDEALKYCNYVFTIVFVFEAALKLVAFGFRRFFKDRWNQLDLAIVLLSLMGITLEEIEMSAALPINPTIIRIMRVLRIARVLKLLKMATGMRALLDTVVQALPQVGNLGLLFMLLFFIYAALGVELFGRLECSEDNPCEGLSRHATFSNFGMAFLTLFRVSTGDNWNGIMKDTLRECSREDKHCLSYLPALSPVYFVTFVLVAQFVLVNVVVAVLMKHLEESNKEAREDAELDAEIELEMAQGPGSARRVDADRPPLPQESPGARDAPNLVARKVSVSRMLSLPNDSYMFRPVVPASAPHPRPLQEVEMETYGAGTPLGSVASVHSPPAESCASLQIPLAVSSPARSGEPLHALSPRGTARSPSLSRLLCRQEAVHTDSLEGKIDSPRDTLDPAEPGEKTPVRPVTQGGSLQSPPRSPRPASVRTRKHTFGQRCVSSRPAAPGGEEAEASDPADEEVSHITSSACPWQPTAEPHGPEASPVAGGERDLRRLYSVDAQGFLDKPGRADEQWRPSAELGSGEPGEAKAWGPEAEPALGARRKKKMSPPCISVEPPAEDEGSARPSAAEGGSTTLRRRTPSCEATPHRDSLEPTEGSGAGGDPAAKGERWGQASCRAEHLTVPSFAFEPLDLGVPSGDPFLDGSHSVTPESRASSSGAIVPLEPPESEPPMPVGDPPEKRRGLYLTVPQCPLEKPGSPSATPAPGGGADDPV
# [6] = biological target: T2, Voltage-dependent T-type calcium channel subunit alpha-1H; format: functional
# [7] = biological target: Scavenger receptor class B member 1 (Mus musculus, UniProt Q61009); experiment: inhibitors of SR-BI mediated HDL lipid uptake, dose response, ldlA[mSR-BI] cells, fluorescence, cherry pick (AID 493194); format: functional, cell-based;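 further: cellular uptake of fluorescent DiI-labeled HDL measured as cell fluorescence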
# Sequence of Scavenger receptor class B member 1 (Q61009 whole entry): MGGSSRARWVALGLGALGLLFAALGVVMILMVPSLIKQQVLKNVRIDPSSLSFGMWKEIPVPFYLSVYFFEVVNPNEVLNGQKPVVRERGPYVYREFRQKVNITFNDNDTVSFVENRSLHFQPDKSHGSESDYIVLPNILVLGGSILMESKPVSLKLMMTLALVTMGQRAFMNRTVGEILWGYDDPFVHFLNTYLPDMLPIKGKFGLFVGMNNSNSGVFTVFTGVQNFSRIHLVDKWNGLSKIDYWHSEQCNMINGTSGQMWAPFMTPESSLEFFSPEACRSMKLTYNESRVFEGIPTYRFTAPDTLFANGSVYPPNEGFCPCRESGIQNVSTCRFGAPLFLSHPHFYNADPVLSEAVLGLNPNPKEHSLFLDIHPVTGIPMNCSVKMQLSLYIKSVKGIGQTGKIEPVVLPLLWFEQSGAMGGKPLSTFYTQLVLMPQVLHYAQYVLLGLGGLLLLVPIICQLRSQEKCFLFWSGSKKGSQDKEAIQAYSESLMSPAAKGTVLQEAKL
# [8] = HEp-2 cell cytotoxicity, dose response, cytotoxicity control for RSV inhibitor project, HTS (AID 2410); format: functional; settings: human respiratory syncytial virus
# [9] = Luminescence Cell-Based Dose Retest to Confirm Inhibitors of Cancer Stem Cells. [Related pubchem assays (depositor defined):AID2717, AID2721]; format: functional; settings: Homo sapiens
# Streptokinase A = biological target: T3, Streptokinase A (Streptococcus pyogenes serotype M1, UniProt P10520); experiment: S. pyogenes streptokinase expression inhibitors, potency, dose response, plasminogen activation absorbance, OD405 (AID 1914); format: functional, Streptococcus pyogenes M1 GAS;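 further: secreted streptokinase activity via plasminogen activation per viability signal from cell pellet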
# T3 sequence (P10520 whole entry): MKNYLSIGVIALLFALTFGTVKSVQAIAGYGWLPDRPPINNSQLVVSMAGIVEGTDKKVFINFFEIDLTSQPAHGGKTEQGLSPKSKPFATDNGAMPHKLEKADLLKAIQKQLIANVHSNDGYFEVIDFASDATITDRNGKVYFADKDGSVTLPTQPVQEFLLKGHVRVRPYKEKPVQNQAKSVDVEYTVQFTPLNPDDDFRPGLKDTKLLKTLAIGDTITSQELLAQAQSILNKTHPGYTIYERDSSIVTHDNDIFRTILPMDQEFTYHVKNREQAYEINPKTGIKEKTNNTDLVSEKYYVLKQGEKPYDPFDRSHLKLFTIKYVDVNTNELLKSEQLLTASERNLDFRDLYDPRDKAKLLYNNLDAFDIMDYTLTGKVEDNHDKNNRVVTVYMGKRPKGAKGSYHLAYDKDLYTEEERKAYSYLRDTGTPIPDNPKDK
# [10] = HepG2 cell cytotoxicity, dose response, cytotoxicity control for Shn3 inhibitor project, CellTiter-Glo, cherry-picked (AID 624134); format: functional, cell-based
# Streptococcus = experiment: Group A Streptococcus viability loss, dose response, counter-screen for streptokinase expression inhibitor project, luminescence, BacTiterGlo (AID 1915); format: functional, organism-based;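 further: potency for reduction of bacterial viability or growth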
# [11] = biological target: Sphingosine 1-phosphate receptor 1 (Homo sapiens, UniProt P21453); format: functional;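 further: Tango beta-arrestin reporter U2OS cells stimulated with S1P near its EC80; inhibitor potency meaning antagonism of receptor activation by the natural agonist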
# Sequence of Sphingosine 1-phosphate receptor 1 (P21453 whole entry): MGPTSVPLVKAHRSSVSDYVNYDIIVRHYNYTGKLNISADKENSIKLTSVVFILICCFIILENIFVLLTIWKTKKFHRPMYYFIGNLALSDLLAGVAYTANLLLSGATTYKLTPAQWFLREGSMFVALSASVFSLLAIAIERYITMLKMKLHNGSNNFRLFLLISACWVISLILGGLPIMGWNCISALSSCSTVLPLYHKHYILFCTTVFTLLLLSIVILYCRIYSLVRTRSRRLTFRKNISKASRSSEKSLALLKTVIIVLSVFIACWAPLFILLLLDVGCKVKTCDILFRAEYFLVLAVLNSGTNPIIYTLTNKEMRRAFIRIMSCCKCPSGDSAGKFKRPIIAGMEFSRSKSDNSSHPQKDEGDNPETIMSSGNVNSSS
# [12] = test system: Streptococcus sp. 'group A'; experiment: growth inhibition of control SK(-) GAS strain, dose response, counter-screen for streptokinase expression inhibitor project, luminescence, kanamycin, BacTiterGlo, confirmation (AID 1900); format: functional, organism-based
# [13] = Shn3 3'UTR reporter inhibitors, dose response, cell-based, Clone20 osteoblasts, firefly luciferase, cherry-picked (AID 624132); format: functional;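 further: firefly luciferase luminescence from reporter carrying the Shn3 3'UTR in osteoblasts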
# [14] = biological target: T4, Sphingosine 1-phosphate receptor 4 (Homo sapiens, UniProt O95977); experiment: Late stage fluorescence dose response cell-based screening assay for antagonists of the Sphingosine 1-Phosphate Receptor 4 (S1P4). [Related pubchem assays: 1524 (Confirmation screen (S1P4 antagonists).), 1510 (Primary screen (S1P4 antagonists).), 1853 (Summary AID (S1P4 antagonists).), 1692 (Dose response screen (S1P4 antagonists).)]; format: functional
# T4 sequence (O95977 whole entry): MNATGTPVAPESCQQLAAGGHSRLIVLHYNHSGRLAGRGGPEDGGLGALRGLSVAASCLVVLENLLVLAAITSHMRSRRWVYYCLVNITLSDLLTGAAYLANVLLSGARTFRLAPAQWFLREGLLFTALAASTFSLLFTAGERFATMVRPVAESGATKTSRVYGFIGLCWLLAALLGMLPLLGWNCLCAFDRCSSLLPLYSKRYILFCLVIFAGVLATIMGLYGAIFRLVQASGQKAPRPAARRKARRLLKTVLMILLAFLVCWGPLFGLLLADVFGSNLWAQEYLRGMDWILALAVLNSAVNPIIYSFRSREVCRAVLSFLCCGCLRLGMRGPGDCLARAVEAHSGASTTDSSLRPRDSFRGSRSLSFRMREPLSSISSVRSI
# [15] = microbe, parasite or virus in culture; format: functional; settings: Mycobacterium tuberculosis
# [16] = biological target: Neurotensin receptor type 1 (Homo sapiens, UniProt P30989); format: functional;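 further: Image-based confirmatory dose-response assay measuring agonist activity at NTR1; NTR1-expressing U2OS osteosarcoma cells imaged for beta-arrestin GFP spot formation; agonist potency where compounds increase beta-arrestin recruitment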
# Sequence of Neurotensin receptor type 1 (P30989 whole entry): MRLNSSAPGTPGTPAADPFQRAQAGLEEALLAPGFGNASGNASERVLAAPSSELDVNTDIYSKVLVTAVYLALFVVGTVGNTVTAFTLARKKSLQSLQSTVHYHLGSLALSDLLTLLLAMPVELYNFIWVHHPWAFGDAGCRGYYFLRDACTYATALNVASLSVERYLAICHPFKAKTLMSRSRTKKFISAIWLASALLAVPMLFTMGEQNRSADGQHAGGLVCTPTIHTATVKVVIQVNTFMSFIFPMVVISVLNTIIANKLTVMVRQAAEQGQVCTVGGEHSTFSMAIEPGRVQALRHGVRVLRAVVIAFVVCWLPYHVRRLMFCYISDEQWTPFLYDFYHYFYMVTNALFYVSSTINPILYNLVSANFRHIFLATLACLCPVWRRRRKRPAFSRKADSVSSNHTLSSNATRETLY
# [17] = biological target: Heat shock protein HSP 90-alpha (Homo sapiens, UniProt P07900); format: functional, organism-based
# [18] = control 3'UTR Renilla luciferase suppression, dose response, counter-screen for Shn3 inhibitor project, cell-based, Clone20-Shn3RL, cherry-picked (AID 624133); format: functional
# [19] = biological target: T4, Sphingosine 1-phosphate receptor 4; experiment: Fluorescence dose response cell-based high throughput screening assay for antagonists of the Sphingosine 1-Phosphate Receptor 4 (S1P4). [Related pubchem assays: 1524 (Confirmation in triplicates.), 1510 (Primary screen.)]; format: functional
# Beta-galactosidase = Beta-galactosidase (Escherichia coli, UniProt Q8VNN2); experiment: beta-galactosidase enzyme inhibitors and activators, dose response, artefact control for CCR6 antagonist project, biochemical, E. coli enzyme, set 3 (AID 504712); format: functional
# [20] = biological target: T5, Heat shock factor protein 1 (Mus musculus, UniProt P38532); experiment: inhibition of MG132-induced HSE-luciferase signal, confirmation, cell-based, NIH3T3, luminescence, dose retest (AID 2382); format: functional;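 further: NIH3T3 fibroblasts with HSF1-driven luciferase reporter stressed by proteasome inhibitor MG132; luminescence from HSF1-driven luciferase expression after 8 hours of MG132 stress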
# T5 sequence (P38532 whole entry): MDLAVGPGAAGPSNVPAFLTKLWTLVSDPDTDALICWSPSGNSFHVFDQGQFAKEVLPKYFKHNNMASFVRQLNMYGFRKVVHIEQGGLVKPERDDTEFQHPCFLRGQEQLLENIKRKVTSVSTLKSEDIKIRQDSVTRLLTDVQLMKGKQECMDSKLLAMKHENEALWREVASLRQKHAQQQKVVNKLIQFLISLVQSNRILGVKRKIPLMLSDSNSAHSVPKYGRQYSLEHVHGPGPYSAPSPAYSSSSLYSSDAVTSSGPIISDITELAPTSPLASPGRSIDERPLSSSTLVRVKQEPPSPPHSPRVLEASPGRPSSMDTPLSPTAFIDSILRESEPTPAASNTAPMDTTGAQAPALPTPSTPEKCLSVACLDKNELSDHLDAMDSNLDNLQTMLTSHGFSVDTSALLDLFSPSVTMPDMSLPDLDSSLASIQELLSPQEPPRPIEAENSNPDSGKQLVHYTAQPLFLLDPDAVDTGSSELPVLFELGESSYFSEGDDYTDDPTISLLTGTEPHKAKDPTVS
# Cytochrome P450 3A4 = Cytochrome P450 3A4 (Homo sapiens, UniProt P08684); settings: Potency;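 further: confirmatory qHTS run detecting inhibitors and substrates of CYP3A4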
# Sequence of Cytochrome P450 3A4 (P08684 whole entry): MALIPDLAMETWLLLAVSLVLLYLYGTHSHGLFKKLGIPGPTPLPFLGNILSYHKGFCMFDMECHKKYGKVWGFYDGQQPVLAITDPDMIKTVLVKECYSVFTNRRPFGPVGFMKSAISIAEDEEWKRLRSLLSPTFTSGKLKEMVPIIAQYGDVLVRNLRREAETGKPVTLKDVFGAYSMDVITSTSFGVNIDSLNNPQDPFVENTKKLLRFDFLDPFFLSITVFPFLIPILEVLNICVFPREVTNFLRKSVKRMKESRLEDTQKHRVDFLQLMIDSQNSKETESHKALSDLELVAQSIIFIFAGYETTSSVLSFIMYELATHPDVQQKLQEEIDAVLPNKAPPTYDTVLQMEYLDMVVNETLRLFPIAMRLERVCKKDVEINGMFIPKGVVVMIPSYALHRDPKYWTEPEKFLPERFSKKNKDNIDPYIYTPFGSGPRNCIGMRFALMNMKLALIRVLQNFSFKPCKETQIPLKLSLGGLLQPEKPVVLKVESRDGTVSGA
# Beta-lactamase [21] = biological target: T6, Beta-lactamase (Pseudomonas aeruginosa, UniProt Q79MP6); experiment: […] counterscreen for selective VIM-2 inhibitors: dose response biochemical high throughput screening assay to identify inhibitors of IMP-1 metallo-beta-lactamase.
# T6 sequence (Q79MP6 whole entry): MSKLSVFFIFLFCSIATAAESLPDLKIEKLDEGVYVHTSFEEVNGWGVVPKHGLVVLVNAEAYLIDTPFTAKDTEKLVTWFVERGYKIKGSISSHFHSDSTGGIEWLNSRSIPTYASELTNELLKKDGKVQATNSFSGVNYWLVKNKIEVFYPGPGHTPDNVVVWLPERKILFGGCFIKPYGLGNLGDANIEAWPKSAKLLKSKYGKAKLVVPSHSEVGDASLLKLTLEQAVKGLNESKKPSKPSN
# Beta-lactamase [22] = biological target: T6, Beta-lactamase; experiment: IMP-1 metallo-beta-lactamase inhibitors, dose response, selectivity assay for VIM-2 inhibitor project, biochemical, epi-absorbance (AID 1920)
# Beta-lactamase [23] = biological target: Beta-lactamase (Salmonella choleraesuis (strain SC-B67), UniProt Q5J463); experiment: Epi-absorbance-based counterscreen for selective VIM-2 inhibitors: dose response biochemical high throughput screening assay to identify inhibitors of TEM-1 serine-beta-lactamase.
# [24] = biological target: Cyclin-dependent kinase 5/CDK5 activator 1 (Homo sapiens, UniProt Q00535); experiment: CDK5/p35 kinase inhibitors, dose response, biochemical, cherry-picked samples, set 2 (AID 504545)
# [25] = biological target: T7, Calpain-2 catalytic subunit (Sus scrofa, UniProt P43367); experiment: pig calpain II inhibitor potency, dose response, biochemical, fluorogenic peptide substrate (AID 1420); format: functional
# T7 sequence (P43367 whole entry): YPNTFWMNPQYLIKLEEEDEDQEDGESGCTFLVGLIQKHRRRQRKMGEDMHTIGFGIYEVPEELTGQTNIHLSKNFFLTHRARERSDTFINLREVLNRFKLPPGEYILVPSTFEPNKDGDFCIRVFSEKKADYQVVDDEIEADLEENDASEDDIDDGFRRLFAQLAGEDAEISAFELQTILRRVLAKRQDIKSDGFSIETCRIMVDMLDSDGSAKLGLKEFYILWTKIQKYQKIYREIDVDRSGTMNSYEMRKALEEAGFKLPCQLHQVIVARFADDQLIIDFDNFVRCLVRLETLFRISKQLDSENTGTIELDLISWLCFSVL
# Sequence of Cytochrome P450 2C9 (P11712 whole entry): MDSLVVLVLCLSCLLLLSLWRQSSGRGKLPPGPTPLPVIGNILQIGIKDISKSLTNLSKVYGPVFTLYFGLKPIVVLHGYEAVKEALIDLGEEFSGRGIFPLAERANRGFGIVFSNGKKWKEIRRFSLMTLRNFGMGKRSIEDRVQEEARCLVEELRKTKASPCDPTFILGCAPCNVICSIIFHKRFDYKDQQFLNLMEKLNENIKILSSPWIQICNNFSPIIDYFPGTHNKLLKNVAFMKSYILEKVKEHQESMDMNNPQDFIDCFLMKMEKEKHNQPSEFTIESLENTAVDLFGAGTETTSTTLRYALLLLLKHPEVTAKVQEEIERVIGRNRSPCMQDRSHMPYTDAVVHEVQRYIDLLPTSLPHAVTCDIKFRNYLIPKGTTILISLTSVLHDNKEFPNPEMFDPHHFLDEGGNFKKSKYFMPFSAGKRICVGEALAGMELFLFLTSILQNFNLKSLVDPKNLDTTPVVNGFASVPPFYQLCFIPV
structure (smiles),measurement,setting,value
C/C=C/OC(=O)NC(c1ccccc1)[C@@]1(C(=O)OCC)CCCC1=O (stereo partly specified),AC50,Cytochrome P450 2C9,3.98 µM (inconclusive)
Oc1cc(OCc2ccccc2)ccn1,IC50,[1],> 39.8 µM (not active)
same,IC50,[2],0.0261 µM (active)
same,IC50,[3],16.6 µM (not active)
same,AC50,[4],11.5 µM (active)
CC(C)(C)n1nnnc1CN1CCN(C(c2ccccc2)c2ccccc2)CC1,EC50,[5],7.64 µM (active)
same,EC50,[6],6.42 µM (active)
COc1ccc(-n2sc3c(c2=S)-c2cc(OC)ccc2NC3(C)C)cc1,AC50,[7],16.1 µM (active)
same,CC50,[8],18.4 µM (active)
same,AC50,[9],2.53 µM (active)
CCOc1cc(/C=C\[N+](=O)[O-])ccc1OCC(=O)Nc1ccccc1C,EC50,Streptokinase A,4.73 µM (active)
same,AC50,[10],22.5 µM (active)
same,EC50,Streptococcus,12.3 µM (active)
same,IC50,[11],18.8 µM (not active)
same,EC50,[12],7.34 µM (active)
same,AC50,[13],< 0.26 µM (active)
same,IC50,[14],1.8 µM (not active)
same,CC50,[15],> 40 µM (active)
same,EC50,[16],9.86 µM (active)
same,AC50,[17],3.66 µM (active)
same,AC50,[18],4.63 µM (active)
same,IC50,[19],0.913 µM (active)
same,IC50,Beta-galactosidase,> 66.6 µM (inactive)
same,EC50,[20],5.09 µM (active)
COc1ccc(OC)c(-c2ccccc2/C=N/NS(=O)(=O)c2ccc(C)cc2)c1,AC50,Cytochrome P450 3A4,3.16 µM (inconclusive)
same,AC50,Cytochrome P450 2C9,7.94 µM (inconclusive)
O=C1Nc2cc(C(=O)N3CCC(N4CCCCC4)CC3)ccc2S/C1=C\c1ccccc1,IC50,Beta-lactamase [21],> 59.6 µM (inactive)
same,IC50,Beta-lactamase [22],> 59.6 µM (inactive)
same,IC50,Beta-lactamase [23],> 59.6 µM (inactive)
same,AC50,[24],21.2 µM (active)
CC(C)C[C@H](NC(=O)c1[nH]cnc1C(=O)N[C@@H](C)c1ccccc1)C(=O)OCc1ccccc1,EC50,Streptokinase A,> 150 µM (inconclusive)
same,EC50,Streptococcus,40.7 µM (active)
same,EC50,[12],0.656 µM (active)
same,EC50,[16],5.4 µM (active)
same,IC50,[25],5.23 µM (not active)
CC(C)OCCCNC(=O)c1ccc(C2SCC(=O)N2Cc2ccco2)cc1 (stereo unspecified),AC50,[7],1 µM (active)
